Measured values from US5591758A, “Organic nitrates, processes for their preparation and their use in the treatment of cardiovascular diseases” (Laboratoires Hoechst, SA, priority 1991, dated 1997).
“And” between values parts separate entries of the source, which are not always exact repeats. Equal values may be shown once.

Test system: anaesthetised dogs
Assay: Tachyphylaxis model on anaesthetised dogs (repeated i.d. administration)
Type: in vivo, dogs (labrador/harrier cross)
Parameters: Δdp/dt average / ΔBPs / ΔBPd / ΔLVEDP / ΔHR / ΔBPs average / ΔBPd average / ΔLVEDP average / ΔHR average: unit not given here
Details: for ΔBPd / ΔBPs / ΔHR / ΔLVEDP / Δdp/dt: single dog
Description: Comparison with isosorbide mononitrate (IS-5-MN).
The product (46) is tested in a tachyphylaxis model on anaesthetised dogs. IS-5-MN is used as reference substance.
8 dogs of each sex, weighing between 16 and 24 kg, are used. These dogs are the progeny of a labrador/harrier cross. Anaesthesia is induced with the aid of sodium pentobarbital (45 mg/kg i.v.) and maintained by i.v. perfusion (flow rate: 8 mg/kg/h). The animals are ventilated, with the aid of a "Bird Mark 7" respirator, using ambient air, and catheterised. […] The arterial blood gases are measured at regular intervals.
IS-5-MN is also dissolved in water and given i.d. in a dosage of 5 mg/kg in a volume of 10 ml/animal.
Three hours (in the case of IS-5-MN) or four hours (in the case of (46)) after the first administration, the compounds are readministered in the same dosage and by the same route. The haemodynamic parameter chosen for the study of the tachyphylaxis is the systolic blood pressure (BPs), insofar as this parameter is very sensitive to the administration of the compounds.

[1] = 1st administration, 5 mg/kg i.d., 5 min
[2] = 1st administration, 5 mg/kg i.d., 10 min
[3] = 1st administration, 5 mg/kg i.d., 15 min
[4] = 1st administration, 5 mg/kg i.d., 30 min
[5] = 1st administration, 5 mg/kg i.d., 60 min
[6] = 1st administration, 5 mg/kg i.d., 120 min
[7] = 1st administration, 5 mg/kg i.d., 180 min
[8] = i.d., IS-5-MN 5 mg/kg, (46) 0.75 mg/kg
[9] = n = 4, 2nd administration, 5 mg/kg i.d., 5 min
[10] = n = 4, 2nd administration, 5 mg/kg i.d., 10 min
[11] = n = 4, 2nd administration, 5 mg/kg i.d., 15 min
[12] = n = 4, 2nd administration, 5 mg/kg i.d., 30 min
[13] = n = 4, 2nd administration, 5 mg/kg i.d., 60 min
[14] = n = 4, 2nd administration, 5 mg/kg i.d., 120 min
[15] = n = 4, 2nd administration, 5 mg/kg i.d., 180 min
[16] = 1st administration, 5 mg/kg i.d., 5 min, 5 mg/kg
[17] = 1st administration, 5 mg/kg i.d., 10 min, 5 mg/kg
[18] = 1st administration, 5 mg/kg i.d., 15 min, 5 mg/kg
[19] = 1st administration, 5 mg/kg i.d., 30 min, 5 mg/kg
[20] = 1st administration, 5 mg/kg i.d., 60 min, 5 mg/kg
[21] = 1st administration, 5 mg/kg i.d., 120 min, 5 mg/kg
[22] = 1st administration, 5 mg/kg i.d., 180 min, 5 mg/kg
[23] = 2nd administration, 5 mg/kg i.d., 5 min, 5 mg/kg
[24] = 2nd administration, 5 mg/kg i.d., 10 min, 5 mg/kg
[25] = 2nd administration, 5 mg/kg i.d., 15 min, 5 mg/kg
[26] = 2nd administration, 5 mg/kg i.d., 30 min, 5 mg/kg
[27] = 2nd administration, 5 mg/kg i.d., 60 min, 5 mg/kg
[28] = 2nd administration, 5 mg/kg i.d., 120 min, 5 mg/kg
[29] = 2nd administration, 5 mg/kg i.d., 180 min, 5 mg/kg

O=[N+]([O-])O[C@@H]1CO[C@H]2[C@@H]1OC[C@@H]2O [IS-5-MN, isosorbide 5-mononitrate, reference compound]
fall in the BPs, first administration, on average (5 mg/kg i.d.): -30 mmHg | return of BP to control value after second administration (5 mg/kg i.d.): rapid return to the control value | ΔBPd average [1]: -21 | ΔBPs average [1]: -30 | ΔLVEDP average [1]: -3 | Δdp/dt average [1]: -175 | ΔBPd average [2]: -18 | ΔBPs average [2]: -26 | ΔLVEDP average [2]: -3 | Δdp/dt average [2]: -175 | ΔBPd average [3]: -16 | ΔBPs average [3]: -25 | ΔLVEDP average [3]: -3 | Δdp/dt average [3]: -150 | ΔBPd average [4]: -13 | ΔBPs average [4]: -24 | ΔLVEDP average [4]: -3 | Δdp/dt average [4]: -175 | ΔBPd average [5]: -12 | ΔBPs average [5]: -23 | ΔLVEDP average [5]: -1 | Δdp/dt average [5]: -200 | ΔBPd average [6]: 3 | ΔBPs average [6]: -5 | ΔLVEDP average [6]: -2 | Δdp/dt average [6]: 75 | ΔBPd average [7]: 3 | ΔBPs average [7]: -4 | ΔLVEDP average [7]: -2 | Δdp/dt average [7]: 100 | development of tachyphylaxis after repeated administration (dogs, two i.d. administrations): tachyphylaxis after repeated administration | maximum fall in the BP after second administration [8]: -19 mmHg | time of maximum effect on BPs after first administration [8]: 5 min | time of maximum fall in the BP after second administration [8]: 5 min | ΔBPd average [9]: -13 | ΔBPs average [9]: -19 | ΔLVEDP average [9]: -1 | Δdp/dt average [9]: -125 | ΔBPd average [10]: -11 | ΔBPs average [10]: -15 | ΔLVEDP average [10]: -2 | Δdp/dt average [10]: -75 | ΔBPd average [11]: -9 | ΔBPs average [11]: -13 | ΔLVEDP average [11]: -1 | Δdp/dt average [11]: -100 | ΔBPd average [12]: -5 | ΔBPs average [12]: -9 | ΔLVEDP average [12]: -1 | Δdp/dt average [12]: 0 | ΔBPd average [13]: -4 | ΔBPs average [13]: -7 | ΔLVEDP average [13]: -2 | Δdp/dt average [13]: 50 | ΔBPd average [14]: -5 | ΔBPs average [14]: -6 | ΔLVEDP average [14]: -1 | Δdp/dt average [14]: 100 | ΔBPd average [15]: -1 | ΔBPs average [15]: -4 | ΔLVEDP average [15]: -2 | Δdp/dt average [15]: 175 | ΔBPd [16]: -15 and -25 and -20 | ΔBPs [16]: -25 and -35 and -30 | ΔHR [16]: 0 and 5 | ΔLVEDP [16]: -3 and -4 and -2 | Δdp/dt [16]: -200 and -100 and -300 | ΔBPd [17]: -15 and -20 | ΔBPs [17]: -25 and -30 | ΔHR [17]: 0 and 5 | ΔLVEDP [17]: -3 and -5 and -1 | Δdp/dt [17]: -300 and 0 and -100 | ΔBPd [18]: -15 and -10 and -20 | ΔBPs [18]: -25 and -20 and -30 | ΔHR [18]: -5 and 5 and 0 | ΔLVEDP [18]: -3 and -5 and -1 | Δdp/dt [18]: -200 and 0 and -100 and -300 | ΔBPd [19]: -15 and -10 | ΔBPs [19]: -35 and -20 and -25 and -15 | ΔHR [19]: -15 and 5 and 0 | ΔLVEDP [19]: -1 and -5 and -3 | Δdp/dt [19]: -300 and 0 and -100 | ΔBPd [20]: -20 and 0 and -15 | ΔBPs [20]: -35 and -10 and -25 and -20 | ΔHR [20]: -20 and 10 and -5 and 0 | ΔLVEDP [20]: 0 and -2 and -3 and -1 | Δdp/dt [20]: -400 and 0 and -100 and -300 | ΔBPd [21]: 10 and 0 and -5 and 5 | ΔBPs [21]: 0 and -15 and -5 | ΔHR [21]: 0 and 10 and 5 | ΔLVEDP [21]: -1 and -3 and -2 | Δdp/dt [21]: 400 and 0 and -100 | Δdp/dt [7]: 100 | ΔBPd [22]: 5 and 0 and -5 and 10 | ΔBPs [22]: -5 and 0 and -15 and 5 | ΔHR [22]: -5 and 10 and 5 | ΔLVEDP [22]: -3 and -1 and -5 and 0 | ΔBPd [23]: -5 and -15 | ΔBPs [23]: -15 and -20 | ΔHR [23]: 0 and 5 | ΔLVEDP [23]: -2 and 0 | Δdp/dt [23]: -200 and -100 | ΔBPs (2nd administration, 5 mg/kg i.d., 10 min): -15 | ΔBPd [24]: -5 and -15 | ΔHR [24]: 0 and 5 | ΔLVEDP [24]: -2 and -1 | Δdp/dt [24]: -200 and 0 and -100 | Δdp/dt (2nd administration, 5 mg/kg i.d., 15 min): -100 | ΔBPd [25]: -5 and -15 and -10 | ΔBPs [25]: -15 and -10 | ΔHR [25]: -5 and 0 and 5 | ΔLVEDP [25]: -2 and -1 and 0 | Δdp/dt (2nd administration, 5 mg/kg i.d., 30 min): 0 | ΔBPd [26]: 0 and -10 and -5 | ΔBPs [26]: -10 and -5 | ΔHR [26]: 0 and 5 | ΔLVEDP [26]: -2 and -1 and 0 | ΔBPd [27]: 5 and -10 and 0 | ΔBPs [27]: 0 and -10 and -15 and -5 | ΔHR [27]: 5 and 0 and -5 | ΔLVEDP [27]: -2 and -3 and -1 | Δdp/dt [27]: 100 and 0 and -100 and 200 | ΔBPd [28]: 0 and -15 and -5 | ΔBPs [28]: -5 and -15 and 0 | ΔHR [28]: 5 and -5 and 10 | ΔLVEDP [28]: -2 and 1 | Δdp/dt [28]: 0 and 100 and 300 | ΔBPd [29]: 0 and -5 | ΔBPs [29]: -5 and 0 | ΔHR [29]: 5 and 15 and 0 | ΔLVEDP [29]: -2 and -3 and -1 | Δdp/dt [29]: 100 and 200 and 300
